Results on one compound are retold here after BindingDB's records for patent US20240083900 (Biogen Ma, 2024).

The target in this assay is Tyrosine-protein kinase BTK (Homo sapiens, UniProt Q06187). In words: In Vitro BTK Kinase Assay: Btk-PolyGAT-LS Assay. Here is the method:
The purpose of the BTK in vitro assay is to determine compound potency against BTK through the measurement of IC50. […] For a typical assay, a 24 μL aliquot of a ATP/peptide master mix (final concentration; ATP 10 μM, polyGAT 100 nM) in kinase buffer (10 mM Tris-HCl pH 7.5, 10 mM MgCl2, 200 μM Na3PO4, 5 mM DTT, 0.01% Triton X-100, and 0.2 mg/ml casein) is added to each well. […] The assay is incubated for 30 minutes before being stopped with 28 μL of a 50 mM EDTA solution. […] The plate is covered and incubated for 45 minutes at room temperature.

The structures appear in SMILES notation.

Chain of Tyrosine-protein kinase BTK (Q06187 whole entry): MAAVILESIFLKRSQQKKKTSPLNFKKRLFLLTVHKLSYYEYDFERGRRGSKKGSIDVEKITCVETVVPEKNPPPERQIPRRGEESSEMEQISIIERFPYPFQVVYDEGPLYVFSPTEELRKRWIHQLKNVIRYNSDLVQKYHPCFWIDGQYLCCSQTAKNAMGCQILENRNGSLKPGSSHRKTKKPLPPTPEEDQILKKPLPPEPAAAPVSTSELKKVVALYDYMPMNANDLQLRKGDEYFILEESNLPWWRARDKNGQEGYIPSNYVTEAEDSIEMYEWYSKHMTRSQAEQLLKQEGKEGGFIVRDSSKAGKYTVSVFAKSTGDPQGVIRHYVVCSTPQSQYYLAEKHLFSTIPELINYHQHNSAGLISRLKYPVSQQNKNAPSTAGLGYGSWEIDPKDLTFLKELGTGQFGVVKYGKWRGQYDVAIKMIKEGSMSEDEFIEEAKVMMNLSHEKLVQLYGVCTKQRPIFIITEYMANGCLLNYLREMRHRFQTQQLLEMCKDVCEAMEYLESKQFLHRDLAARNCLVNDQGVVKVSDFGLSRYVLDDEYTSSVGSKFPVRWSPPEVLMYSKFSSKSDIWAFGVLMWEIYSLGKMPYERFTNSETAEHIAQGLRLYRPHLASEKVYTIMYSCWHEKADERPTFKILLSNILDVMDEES

What is called IC50 is the concentration that gives 50% inhibition. Regarding `Cn1cc(-c2cn3nccc3c(OC3CCN(C(=O)/C=C\CCl)CC3)n2)cn1` [US20240083900, Example 8], the IC50 was less than 1 nM.
